# Values of other authors as cited in article PMC2912417 (Biochemistry, 2010).
# Where two headings read alike, the source gives them in different places.
# How the values were obtained:
# [1] = peptide alone
substance,measurement,setting,value
IGLMVGGVVIA [Aβ(32–42)],Toxicity of the peptide itself,Aβ42-induced toxicity,slightly toxic itself
same,Aggregation / fibril formation of the peptide itself,[1],"predominantly amorphous, rather than fibrillar, aggregates"
KGAIIGLMVGGVVIA [Aβ(28–42)],Toxicity of the peptide itself,Aβ42-induced toxicity; cell-viability screen,highly toxic itself
LMVGGVV [Aβ(34–40)],Inhibition of Aβ42-induced toxicity,Aβ42-induced toxicity; cell-viability screen under similar conditions,inactive
